{"source": "ChEMBL document CHEMBL4819125", "about": "“Synthesis and anti-proliferation activity of mogrol derivatives bearing quinoline and triazole moieties” (Bioorg Med Chem Lett, 2021)", "key": {"A549 [1]": {"tested_on": "A549", "assay": "Antiproliferative activity against human A549 cells assessed as reduction in cell growth at 30 uM by CCK8 assay relative to control", "assay_type": "functional"}, "NCI-H460 [2]": {"tested_on": "NCI-H460", "assay": "Antiproliferative activity against human NCI-H460 cells assessed as reduction in cell growth at 30 uM by CCK8 assay relative to control", "assay_type": "functional"}, "A549 [3]": {"tested_on": "A549", "assay": "Antiproliferative activity against human A549 cells assessed as reduction in cell growth by CCK8 assay", "assay_type": "functional, cell-based"}, "NCI-H460 [4]": {"tested_on": "NCI-H460", "assay": "Antiproliferative activity against human NCI-H460 cells assessed as reduction in cell growth by CCK8 assay", "assay_type": "functional, cell-based"}}}
{"smiles": "Cc1ccc(-c2cn(CC(=O)O[C@@H]3C[C@]4(C)[C@@H]([C@H](C)CC[C@@H](O)C(C)(C)O)CC[C@@]4(C)[C@@H]4CC=C5[C@@H](CC[C@H](O)C5(C)C)[C@@]43C)nn2)cc1", "values": [{"measurement": "inhibition at 30 µM", "setting": "A549 [1]", "result": 77.3, "unit": "%"}, {"measurement": "inhibition at 30 µM", "setting": "NCI-H460 [2]", "result": 40, "unit": "%"}, {"measurement": "IC50", "setting": "A549 [3]", "result": 5.96, "unit": "µM"}]}
{"smiles": "C[C@H](CC[C@@H](O)C(C)(C)O)[C@H]1CC[C@@]2(C)[C@@H]3CC=C4[C@@H](CC[C@H](O)C4(C)C)[C@]3(C)[C@H](OC(=O)Cn3cc(C4CC4)nn3)C[C@]12C", "values": [{"measurement": "inhibition at 30 µM", "setting": "A549 [1]", "result": 92.9, "unit": "%"}, {"measurement": "inhibition at 30 µM", "setting": "NCI-H460 [2]", "result": 34.7, "unit": "%"}, {"measurement": "IC50", "setting": "A549 [3]", "result": 19.8, "unit": "µM"}]}
{"smiles": "C[C@H](CC[C@@H](O)C(C)(C)O)[C@H]1CC[C@@]2(C)[C@@H]3CC=C4[C@@H](CC[C@H](O)C4(C)C)[C@]3(C)[C@H](OC(=O)Cn3cc(-c4ccc(C#N)cc4)nn3)C[C@]12C", "values": [{"measurement": "inhibition at 30 µM", "setting": "A549 [1]", "result": 76.7, "unit": "%"}, {"measurement": "inhibition at 30 µM", "setting": "NCI-H460 [2]", "result": 20.5, "unit": "%"}, {"measurement": "IC50", "setting": "A549 [3]", "result": 5.79, "unit": "µM"}]}
{"smiles": "C[C@H](Cc1cnc2cc(Br)ccc2c1)[C@H]1CC[C@@]2(C)[C@@H]3CC=C4[C@@H](CC[C@H](O)C4(C)C)[C@]3(C)[C@H](O)C[C@]12C", "values": [{"measurement": "inhibition at 30 µM", "setting": "A549 [1]", "result": 42.7, "unit": "%"}, {"measurement": "inhibition at 30 µM", "setting": "NCI-H460 [2]", "result": 0.71, "unit": "%"}]}
{"smiles": "C[C@H](CC[C@@H](O)C(C)(C)O)[C@H]1CC[C@@]2(C)[C@@H]3CC=C4[C@@H](Cc5cc6cc(Cl)ccc6nc5C4(C)C)[C@]3(C)C(=O)C[C@]12C", "values": [{"measurement": "inhibition at 30 µM", "setting": "A549 [1]", "result": 84.1, "unit": "%"}, {"measurement": "inhibition at 30 µM", "setting": "NCI-H460 [2]", "result": 13.1, "unit": "%"}, {"measurement": "IC50", "setting": "A549 [3]", "result": 12.9, "unit": "µM"}]}
{"smiles": "C[C@H](CC[C@@H](O)C(C)(C)O)[C@H]1CC[C@@]2(C)[C@@H]3CC=C4[C@@H](Cc5cc6ccncc6nc5C4(C)C)[C@]3(C)C(=O)C[C@]12C", "values": [{"measurement": "inhibition at 30 µM", "setting": "A549 [1]", "result": 95.2, "unit": "%"}, {"measurement": "inhibition at 30 µM", "setting": "NCI-H460 [2]", "result": 81.1, "unit": "%"}, {"measurement": "IC50", "setting": "A549 [3]", "result": 14.3, "unit": "µM"}, {"measurement": "IC50", "setting": "NCI-H460 [4]", "result": 18.3, "unit": "µM"}]}
{"smiles": "C[C@H](Cc1cnc2ccc(Br)cc2c1)[C@H]1CC[C@@]2(C)[C@@H]3CC=C4[C@@H](CC[C@H](O)C4(C)C)[C@]3(C)[C@H](O)C[C@]12C", "values": [{"measurement": "inhibition at 30 µM", "setting": "A549 [1]", "result": 53.3, "unit": "%"}, {"measurement": "inhibition at 30 µM", "setting": "NCI-H460 [2]", "result": -12.4, "unit": "%"}]}
{"smiles": "C[C@H](CC[C@@H](O)C(C)(C)O)[C@H]1CC[C@@]2(C)[C@@H]3CC=C4[C@@H](Cc5cc6cc(Br)ccc6nc5C4(C)C)[C@]3(C)C(=O)C[C@]12C", "values": [{"measurement": "inhibition at 30 µM", "setting": "A549 [1]", "result": 69.4, "unit": "%"}, {"measurement": "inhibition at 30 µM", "setting": "NCI-H460 [2]", "result": 17, "unit": "%"}, {"measurement": "IC50", "setting": "A549 [3]", "result": 13.1, "unit": "µM"}]}
{"smiles": "C[C@H](Cc1cnc2ccccc2c1)[C@H]1CC[C@@]2(C)[C@@H]3CC=C4[C@@H](CC[C@H](O)C4(C)C)[C@]3(C)[C@H](O)C[C@]12C", "values": [{"measurement": "inhibition at 30 µM", "setting": "A549 [1]", "result": 91.5, "unit": "%"}, {"measurement": "inhibition at 30 µM", "setting": "NCI-H460 [2]", "result": 69.9, "unit": "%"}, {"measurement": "IC50", "setting": "A549 [3]", "result": 19.2, "unit": "µM"}, {"measurement": "IC50", "setting": "NCI-H460 [4]", "result": 24.6, "unit": "µM"}]}
{"smiles": "C[C@H](CC[C@@H](O)C(C)(C)O)[C@H]1CC[C@@]2(C)[C@@H]3CC=C4[C@@H](Cc5cc6ccc(Cl)cc6nc5C4(C)C)[C@]3(C)C(=O)C[C@]12C", "values": [{"measurement": "inhibition at 30 µM", "setting": "A549 [1]", "result": 6.68, "unit": "%"}, {"measurement": "inhibition at 30 µM", "setting": "NCI-H460 [2]", "result": 2.18, "unit": "%"}]}
{"smiles": "C[C@H](CCCOC(=O)Cn1cc(-c2ccsc2)nn1)[C@H]1CC[C@@]2(C)[C@@H]3CC=C4[C@@H](CC[C@H](O)C4(C)C)[C@]3(C)[C@H](O)C[C@]12C", "values": [{"measurement": "inhibition at 30 µM", "setting": "A549 [1]", "result": 90.5, "unit": "%"}, {"measurement": "inhibition at 30 µM", "setting": "NCI-H460 [2]", "result": 8.3, "unit": "%"}, {"measurement": "IC50", "setting": "A549 [3]", "result": 26.1, "unit": "µM"}]}
{"smiles": "C[C@H](CC[C@@H](O)C(C)(C)O)[C@H]1CC[C@@]2(C)[C@@H]3CC=C4[C@@H](CC[C@H](O)C4(C)C)[C@]3(C)[C@H](O)C[C@]12C", "note": "[MOGROL]", "values": [{"measurement": "inhibition at 30 µM", "setting": "A549 [1]", "result": 62.9, "unit": "%"}, {"measurement": "inhibition at 30 µM", "setting": "NCI-H460 [2]", "result": -13.2, "unit": "%"}, {"measurement": "IC50", "setting": "A549 [3]", "result": 27.8, "unit": "µM"}, {"measurement": "IC50", "setting": "NCI-H460 [4]", "result": "> 100", "unit": "µM"}]}
{"smiles": "C[C@H](Cc1cnc2cc(Cl)ccc2c1)[C@H]1CC[C@@]2(C)[C@@H]3CC=C4[C@@H](CC[C@H](O)C4(C)C)[C@]3(C)[C@H](O)C[C@]12C", "values": [{"measurement": "inhibition at 30 µM", "setting": "A549 [1]", "result": 17.4, "unit": "%"}, {"measurement": "inhibition at 30 µM", "setting": "NCI-H460 [2]", "result": -1.18, "unit": "%"}]}
{"smiles": "C[C@H](CCCOC(=O)Cn1cc(-c2ccccc2)nn1)[C@H]1CC[C@@]2(C)[C@@H]3CC=C4[C@@H](CC[C@H](O)C4(C)C)[C@]3(C)[C@H](O)C[C@]12C", "values": [{"measurement": "inhibition at 30 µM", "setting": "A549 [1]", "result": 87.9, "unit": "%"}, {"measurement": "inhibition at 30 µM", "setting": "NCI-H460 [2]", "result": 7.56, "unit": "%"}, {"measurement": "IC50", "setting": "A549 [3]", "result": 22.5, "unit": "µM"}]}
{"smiles": "Cc1ccc(-c2cn(CC(=O)OCCC[C@@H](C)[C@H]3CC[C@@]4(C)[C@@H]5CC=C6[C@@H](CC[C@H](O)C6(C)C)[C@]5(C)[C@H](O)C[C@]34C)nn2)cc1", "values": [{"measurement": "inhibition at 30 µM", "setting": "A549 [1]", "result": 88.4, "unit": "%"}, {"measurement": "inhibition at 30 µM", "setting": "NCI-H460 [2]", "result": 10.9, "unit": "%"}, {"measurement": "IC50", "setting": "A549 [3]", "result": 23.8, "unit": "µM"}]}
{"smiles": "C[C@H](CCCOC(=O)Cn1cc(C2CC2)nn1)[C@H]1CC[C@@]2(C)[C@@H]3CC=C4[C@@H](CC[C@H](O)C4(C)C)[C@]3(C)[C@H](O)C[C@]12C", "values": [{"measurement": "inhibition at 30 µM", "setting": "A549 [1]", "result": 89.2, "unit": "%"}, {"measurement": "inhibition at 30 µM", "setting": "NCI-H460 [2]", "result": 6.43, "unit": "%"}, {"measurement": "IC50", "setting": "A549 [3]", "result": 17.7, "unit": "µM"}]}
{"smiles": "C[C@H](CC[C@@H](O)C(C)(C)O)[C@H]1CC[C@@]2(C)[C@@H]3CC=C4[C@@H](Cc5cc6ccccc6nc5C4(C)C)[C@]3(C)C(=O)C[C@]12C", "values": [{"measurement": "inhibition at 30 µM", "setting": "A549 [1]", "result": 94.3, "unit": "%"}, {"measurement": "inhibition at 30 µM", "setting": "NCI-H460 [2]", "result": 80.2, "unit": "%"}, {"measurement": "IC50", "setting": "A549 [3]", "result": 13.8, "unit": "µM"}, {"measurement": "IC50", "setting": "NCI-H460 [4]", "result": 17.1, "unit": "µM"}]}
{"smiles": "C[C@H](Cc1cnc2cnccc2c1)[C@H]1CC[C@@]2(C)[C@@H]3CC=C4[C@@H](CC[C@H](O)C4(C)C)[C@]3(C)[C@H](O)C[C@]12C", "values": [{"measurement": "inhibition at 30 µM", "setting": "A549 [1]", "result": 90.2, "unit": "%"}, {"measurement": "inhibition at 30 µM", "setting": "NCI-H460 [2]", "result": 25.8, "unit": "%"}, {"measurement": "IC50", "setting": "A549 [3]", "result": 18.2, "unit": "µM"}]}
{"smiles": "C[C@H](CC[C@@H](O)C(C)(C)O)[C@H]1CC[C@@]2(C)[C@@H]3CC=C4[C@@H](CC[C@H](O)C4(C)C)[C@]3(C)[C@H](OC(=O)Cn3cc(-c4ccccc4)nn3)C[C@]12C", "values": [{"measurement": "inhibition at 30 µM", "setting": "A549 [1]", "result": 83, "unit": "%"}, {"measurement": "inhibition at 30 µM", "setting": "NCI-H460 [2]", "result": 44.9, "unit": "%"}, {"measurement": "IC50", "setting": "A549 [3]", "result": 6.75, "unit": "µM"}]}
{"smiles": "C[C@H](CC[C@@H](O)C(C)(C)O)[C@H]1CC[C@@]2(C)[C@@H]3CC=C4[C@@H](CC[C@H](O)C4(C)C)[C@]3(C)[C@H](OC(=O)Cn3cc(-c4ccsc4)nn3)C[C@]12C", "values": [{"measurement": "inhibition at 30 µM", "setting": "A549 [1]", "result": 90.5, "unit": "%"}, {"measurement": "inhibition at 30 µM", "setting": "NCI-H460 [2]", "result": 44.9, "unit": "%"}, {"measurement": "IC50", "setting": "A549 [3]", "result": 6.27, "unit": "µM"}]}
{"smiles": "C[C@H](CC[C@@H](O)C(C)(C)O)[C@H]1CC[C@@]2(C)[C@@H]3CC=C4[C@@H](Cc5cc6ccc(Br)cc6nc5C4(C)C)[C@]3(C)C(=O)C[C@]12C", "values": [{"measurement": "inhibition at 30 µM", "setting": "A549 [1]", "result": 22, "unit": "%"}, {"measurement": "inhibition at 30 µM", "setting": "NCI-H460 [2]", "result": 1.65, "unit": "%"}]}
{"smiles": "C[C@H](Cc1cnc2ccc(Cl)cc2c1)[C@H]1CC[C@@]2(C)[C@@H]3CC=C4[C@@H](CC[C@H](O)C4(C)C)[C@]3(C)[C@H](O)C[C@]12C", "values": [{"measurement": "inhibition at 30 µM", "setting": "A549 [1]", "result": 10.6, "unit": "%"}, {"measurement": "inhibition at 30 µM", "setting": "NCI-H460 [2]", "result": -12.6, "unit": "%"}]}
{"smiles": "O=c1[nH]cc(F)c(=O)[nH]1", "note": "[FLUOROURACIL]", "values": [{"measurement": "IC50", "setting": "A549 [3]", "result": 1.65, "unit": "µM"}, {"measurement": "IC50", "setting": "NCI-H460 [4]", "result": 7.03, "unit": "µM"}]}
